# Key:
# Assay type in all cases: in vivo
# Veronica persica = experiment: post-emergence test, field trial (Examples 1-5); settings: FT, pelargonic acid 5440 g/ha, flazasulfuron 50 g/ha, 8 L/ha
# Excerpt: (§1) The expected activity of a given combination of two or three herbicides can be calculated as follows according to a calculation method by Colby (cf. COLBY, S. R.: “Calculating synergistic and antagonistic responses of herbicide combinations”, • Weeds 15, pages 20-22, 1967): • If X=% damage by herbicide (A) at an application rate of m g/ha, • Y=% damage by herbicide (B) at an application rate of n g/ha, • E=the expected damage by herbicides (A) and (B) at application rates of m and n […] and, • then for a combination:
# (§2) Individual compositions comprising pelargonic acid or flazasulfuron are compared with a herbicide composition according to the invention comprising pelargonic acid and flazasulfuron.
# (§3) Herbicidal activity was determined by performing a post-emergence test. […] The corresponding mixture was in the form of a spray liquor. Besides, spray liquors of individual compositions comprising pelargonic acid or flazasulfuron were used.
# (§4) Tests were performed on test fields (field trials) or in pots (pot trials).
# Anagallis arvensis = experiment: post-emergence test, field trial (Examples 1-5); settings: 3 d, FT; pelargonic acid 5440 g/ha, flazasulfuron 50 g/ha; 8 L/ha
# Excerpt: as §1, §2, §3, §4
# Erodium cicuta = experiment: post-emergence test, field trial (Examples 1-5); settings: 28 d, FT; pelargonic acid 5440 g/ha, flazasulfuron 50 g/ha; 8 L/ha
# Excerpt: as §1, §2, §3, §4
# Digitaria sang = experiment: post-emergence test, field trial (Examples 1-5); settings: FT, pelargonic acid 5440 g/ha, flazasulfuron 50 g/ha, 8 L/ha
# Excerpt: as §1, §2, §3, §4
# Convolvulus arvensis L. = experiment: post-emergence test, field trial (Examples 1-5); settings: 3 d, FT; pelargonic acid 5440 g/ha, flazasulfuron 50 g/ha; 8 L/ha
# Excerpt: as §1, §2, §3, §4
# Festuca ovina = experiment: post-emergence test, field trial (Examples 1-5); settings: FT
# Excerpt: as §1, §2, §3, §4
# Plantago major = experiment: post-emergence test, field trial (Examples 1-5); settings: FT
# Excerpt: as §1, §2, §3, §4
# Sonchus oleraceus L. = experiment: post-emergence test, field trial (Examples 1-5); settings: FT, pelargonic acid 5440 g/ha, flazasulfuron 50 g/ha, 8 L/ha
# Excerpt: as §1, §2, §3, §4
# Chenopodium album = experiment: post-emergence test, field trial (Examples 1-5); settings: FT
# Excerpt: as §1, §2, §3, §4
# Echinochloa crusgalli = experiment: post-emergence test, field trial (Examples 1-5); settings: FT
# Excerpt: as §1, §2, §3, §4
# Geranium dissectum = experiment: post-emergence test, pot trial (Examples 1-5); settings: 28 d, PT, pelargonic acid 10880 g/ha, 16 L/ha
# Excerpt: as §1, §2, §3, §4
# Setaria pumila = experiment: post-emergence test, pot trial (Examples 1-5); settings: young plants, 28 d, PT, pelargonic acid 10880 g/ha, 16 L/ha
# Excerpt: as §1, §2, §3, §4
# Poa annua = experiment: post-emergence test, pot trial (Examples 1-5); settings: 28 d, PT; pelargonic acid 10880 g/ha, flazasulfuron 50 g/ha; 16 L/ha
# Excerpt: as §1, §2, §3, §4
# Matricaria chamomilla = experiment: post-emergence test, pot trial (Examples 1-5); settings: bigger plants, 28 d, PT, pelargonic acid 10880 g/ha, 16 L/ha
# Excerpt: as §1, §2, §3, §4
# Trifolium repens = experiment: post-emergence test, pot trial (Examples 1-5); settings: 28 d, PT; pelargonic acid 10880 g/ha, flazasulfuron 50 g/ha; 16 L/ha
# Excerpt: as §1, §2, §3, §4
# [1] = 3 d, pelargonic acid 10880 g/ha, flazasulfuron 25 g/ha, 16 L/ha
# [2] = 3 d, pelargonic acid 21760 g/ha, flazasulfuron 25 g/ha, 32 L/ha
# [3] = 7 d, pelargonic acid 10880 g/ha, flazasulfuron 25 g/ha, 16 L/ha
# [4] = 7 d, pelargonic acid 10880 g/ha, flazasulfuron 50 g/ha, 16 L/ha
# [5] = 7 d, pelargonic acid 21760 g/ha, flazasulfuron 25 g/ha, 32 L/ha
# [6] = 7 d, pelargonic acid 21760 g/ha, flazasulfuron 50 g/ha, 32 L/ha
# [7] = 13 d, pelargonic acid 10880 g/ha, flazasulfuron 25 g/ha, 16 L/ha
# [8] = 13 d, pelargonic acid 10880 g/ha, flazasulfuron 50 g/ha, 16 L/ha
# [9] = 13 d, pelargonic acid 21760 g/ha, flazasulfuron 25 g/ha, 32 L/ha
# [10] = 13 d, pelargonic acid 21760 g/ha, flazasulfuron 50 g/ha, 32 L/ha
# [11] = 23 d, pelargonic acid 10880 g/ha, flazasulfuron 25 g/ha, 16 L/ha
# [12] = 23 d, pelargonic acid 10880 g/ha, flazasulfuron 50 g/ha, 16 L/ha
# [13] = 23 d, pelargonic acid 21760 g/ha, flazasulfuron 25 g/ha, 32 L/ha
# [14] = 23 d, pelargonic acid 21760 g/ha, flazasulfuron 50 g/ha, 32 L/ha
# [15] = 30 d, pelargonic acid 10880 g/ha, flazasulfuron 25 g/ha, 16 L/ha
# [16] = 30 d, pelargonic acid 21760 g/ha, flazasulfuron 25 g/ha, 32 L/ha
# [17] = 38 d, pelargonic acid 10880 g/ha, flazasulfuron 25 g/ha, 16 L/ha
# [18] = 38 d, pelargonic acid 21760 g/ha, flazasulfuron 25 g/ha, 32 L/ha
# [19] = 3 d, pelargonic acid 10880 g/ha, flazasulfuron 50 g/ha, 16 L/ha
# [20] = 3 d, pelargonic acid 21760 g/ha, flazasulfuron 50 g/ha, 32 L/ha
# [21] = 30 d, pelargonic acid 10880 g/ha, flazasulfuron 50 g/ha, 16 L/ha
# [22] = 30 d, pelargonic acid 21760 g/ha, flazasulfuron 50 g/ha, 32 L/ha
# [23] = 38 d, pelargonic acid 10880 g/ha, flazasulfuron 50 g/ha, 16 L/ha
# [24] = 38 d, pelargonic acid 21760 g/ha, flazasulfuron 50 g/ha, 32 L/ha
structure (smiles),measurement,setting,value
"CCCCCCCCC(=O)O [Pelargonic acid, nonanoic acid]",herbicidal effect,Veronica persica; 3 d,8.8%
same,herbicidal effect,Veronica persica; 7 d,20%
same,herbicidal effect,Veronica persica; 56 d,16.3%
same,herbicidal effect,Anagallis arvensis,13.8%
same,herbicidal effect,Erodium cicuta,82.5%
same,herbicidal effect,Digitaria sang; 3 d,51.3%
same,herbicidal effect,Digitaria sang; 7 d,30.8%
same,herbicidal effect,Digitaria sang; 12 d,5%
same,herbicidal effect,Digitaria sang; 72 d,0%
same,herbicidal effect,Convolvulus arvensis L.,11.3%
same,herbicidal effect,Festuca ovina; [1],20%
same,herbicidal effect,Festuca ovina; [2],45%
same,herbicidal effect,Festuca ovina; [3],20%
same,herbicidal effect,Festuca ovina; [4],20%
same,herbicidal effect,Festuca ovina; [5],30%
same,herbicidal effect,Festuca ovina; [6],30%
same,herbicidal effect,Festuca ovina; [7],0%
same,herbicidal effect,Festuca ovina; [8],0%
same,herbicidal effect,Festuca ovina; [9],0%
same,herbicidal effect,Festuca ovina; [10],0%
same,herbicidal effect,Festuca ovina; [11],0%
same,herbicidal effect,Festuca ovina; [12],0%
same,herbicidal effect,Festuca ovina; [13],0%
same,herbicidal effect,Festuca ovina; [14],0%
same,herbicidal effect,Festuca ovina; [15],0%
same,herbicidal effect,Festuca ovina; [16],20%
same,herbicidal effect,Festuca ovina; [17],0%
same,herbicidal effect,Festuca ovina; [18],0%
same,herbicidal effect,Plantago major; [1],20%
same,herbicidal effect,Plantago major; [19],20%
same,herbicidal effect,Plantago major; [20],50%
same,herbicidal effect,Plantago major; [3],25%
same,herbicidal effect,Plantago major; [4],25%
same,herbicidal effect,Plantago major; [5],40%
same,herbicidal effect,Plantago major; [6],40%
same,herbicidal effect,Plantago major; [7],0%
same,herbicidal effect,Plantago major; [8],0%
same,herbicidal effect,Plantago major; [9],0%
same,herbicidal effect,Plantago major; [10],0%
same,herbicidal effect,Plantago major; [13],15%
same,herbicidal effect,Plantago major; [14],15%
same,herbicidal effect,Plantago major; [15],0%
same,herbicidal effect,Plantago major; [21],0%
same,herbicidal effect,Plantago major; [16],0%
same,herbicidal effect,Plantago major; [22],0%
same,herbicidal effect,Plantago major; [17],0%
same,herbicidal effect,Plantago major; [23],0%
same,herbicidal effect,Plantago major; [18],0%
same,herbicidal effect,Plantago major; [24],0%
same,herbicidal effect,Sonchus oleraceus L.; 3 d,2.5%
same,herbicidal effect,Sonchus oleraceus L.; 7 d,1.3%
same,herbicidal effect,Sonchus oleraceus L.; 13 d,3.8%
same,herbicidal effect,Sonchus oleraceus L.; 28 d,1.3%
same,herbicidal effect,Sonchus oleraceus L.; 58 d,0%
same,herbicidal effect,Chenopodium album; [1],40%
same,herbicidal effect,Chenopodium album; [19],40%
same,herbicidal effect,Chenopodium album; [2],45%
same,herbicidal effect,Chenopodium album; [20],45%
same,herbicidal effect,Chenopodium album; [3],40%
same,herbicidal effect,Chenopodium album; [4],40%
same,herbicidal effect,Chenopodium album; [5],35%
same,herbicidal effect,Chenopodium album; [6],35%
same,herbicidal effect,Chenopodium album; [7],10%
same,herbicidal effect,Chenopodium album; [8],10%
same,herbicidal effect,Chenopodium album; [9],10%
same,herbicidal effect,Chenopodium album; [10],10%
same,herbicidal effect,Chenopodium album; [11],15%
same,herbicidal effect,Chenopodium album; [13],40%
same,herbicidal effect,Chenopodium album; [14],40%
same,herbicidal effect,Chenopodium album; [15],0%
same,herbicidal effect,Chenopodium album; [21],0%
same,herbicidal effect,Chenopodium album; [16],0%
same,herbicidal effect,Chenopodium album; [22],0%
same,herbicidal effect,Chenopodium album; [17],15%
same,herbicidal effect,Chenopodium album; [23],15%
same,herbicidal effect,Chenopodium album; [18],30%
same,herbicidal effect,Chenopodium album; [24],30%
same,herbicidal effect,"Echinochloa crusgalli; 3 d, pelargonic acid 5440 g/ha, flazasulfuron 50 g/ha, 8 L/ha",51.3%
same,herbicidal effect,Echinochloa crusgalli; [1],45%
same,herbicidal effect,Echinochloa crusgalli; [2],50%
same,herbicidal effect,"Echinochloa crusgalli; 7 d, pelargonic acid 5440 g/ha, flazasulfuron 50 g/ha, 8 L/ha",30.8%
same,herbicidal effect,Echinochloa crusgalli; [3],30%
same,herbicidal effect,Echinochloa crusgalli; [4],30%
same,herbicidal effect,Echinochloa crusgalli; [6],45%
same,herbicidal effect,"Echinochloa crusgalli; 12 d, pelargonic acid 5440 g/ha, flazasulfuron 50 g/ha, 8 L/ha",5%
same,herbicidal effect,Echinochloa crusgalli; [7],0%
same,herbicidal effect,Echinochloa crusgalli; [8],0%
same,herbicidal effect,Echinochloa crusgalli; [9],0%
same,herbicidal effect,Echinochloa crusgalli; [10],0%
same,herbicidal effect,Echinochloa crusgalli; [11],10%
same,herbicidal effect,Echinochloa crusgalli; [12],10%
same,herbicidal effect,Echinochloa crusgalli; [13],10%
same,herbicidal effect,Echinochloa crusgalli; [14],10%
same,herbicidal effect,"Echinochloa crusgalli; 26 d, pelargonic acid 5440 g/ha, flazasulfuron 50 g/ha, 8 L/ha",0%
same,herbicidal effect,Echinochloa crusgalli; [15],0%
same,herbicidal effect,Echinochloa crusgalli; [16],0%
same,herbicidal effect,Echinochloa crusgalli; [17],0%
same,herbicidal effect,Echinochloa crusgalli; [18],0%
same,herbicidal effect,"Echinochloa crusgalli; 72 d, pelargonic acid 5440 g/ha, flazasulfuron 50 g/ha, 8 L/ha",0%
same,herbicidal effect,"Geranium dissectum; bigger plants, flazasulfuron 50 g/ha",24%
same,herbicidal effect,"Geranium dissectum; young plants, flazasulfuron 25 g/ha",32%
same,herbicidal effect,"Geranium dissectum; young plants, flazasulfuron 50 g/ha",32%
same,herbicidal effect,Setaria pumila; flazasulfuron 25 g/ha,40%
same,herbicidal effect,Setaria pumila; flazasulfuron 50 g/ha,40%
same,herbicidal effect,Poa annua,0%
same,herbicidal effect,Matricaria chamomilla; flazasulfuron 25 g/ha,0%
same,herbicidal effect,Matricaria chamomilla; flazasulfuron 50 g/ha,0%
same,herbicidal effect,Trifolium repens,0%

# — patent US20240365781A1, “SYNERGISTICALLY EFFECTIVE HERBICIDE COMPOSITION COMPRISING PELARGONIC ACID AND FLAZASULFURON” (Belchim Crop Protection NV, priority 2017, published 2024)
